# Results: PMC6095626, “Screening of the Pathogen Box for inhibitors with dual efficacy against Giardia lamblia and Cryptosporidium parvum” (PLoS Neglected Tropical Diseases, 2018)
# How the values were obtained:
# [1] = tested on: G. lamblia trophozoites (luciferase expressing, WBC6); experiment: microbe, parasite or virus in culture; format: cell-based, Giardia lamblia; conditions: for Giardia (16 uM) Mean % inhibition: initial Pathogen Box screen, single concentration 16 µM, inhibition compared to DMSO wells
# In short: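 Incubation ran 24 h at 37 °C under anaerobic conditions, with compound added in equal volume to trophozoites (WBC6, luciferase-expressing, 250,000 cells/mL). Bioluminescence was the read-out, cross-checked by MOXI Z counts on a duplicate plate; metronidazole served as control (1:2 dilutions from 40 μM).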
# [2] = tested on: C. parvum (UGA1 Nluc expressing strain in HCT-8 cells); experiment: microbe, parasite or virus in culture; format: cell-based, Cryptosporidium parvum; conditions: initial Pathogen Box screen, single concentration 10 µM, inhibition compared to DMSO wells
# In short: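 Parasite growth quantified by NanoLuc luminescence from lysed infected HCT-8 cells, with EC50 fitted from dose curves. Compounds, single-dose 10 μM or serially diluted, were added to confluent 48 h monolayers before infection with bleached UGA1 Nluc oocysts.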
Compound,Giardia (16 uM) Mean % inhibition [1],Crypto (10 uM) Mean % inhibition [2],"G. lamblia EC50 ([1]; luciferase expressing G. lamblia trophozoites, 24 hours, D-luciferin bioluminescence read-out)"
Cc1cc(Nc2ccncc2)n2nc(C)c(-c3ccccc3Cl)c2n1 [MMV016136],X* (Mean or standard deviation are negative but not significantly different from the control to be a growth promoter),46%,
CCCn1nnc(NC(=O)COc2ccc(C3CCCCC3)cc2)n1 [MMV676597],31%,60%,
O=C(Nc1c(O)cccc1-c1nc2c(C(=O)O)cccc2o1)c1cc(-c2ccccc2)on1 [MMV676008],41%,X* (Mean or standard deviation are negative but not significantly different from the control to be a growth promoter),
Cc1cc(Nc2ccc(C(F)(F)F)cc2)n2ccnc2n1 [MMV011229],35%,X* (Mean or standard deviation are negative but not significantly different from the control to be a growth promoter),
Nc1ncnc2c1c(Cc1cccc3ccccc13)nn2CC1CCNCC1 [MMV676182],0.413%,59%,
CCOc1ccc(-c2nc(CNCCc3ccc(F)cc3)cs2)cc1 [MMV688938],65%,X* (Mean or standard deviation are negative but not significantly different from the control to be a growth promoter),
Nc1ncc(Br)cc1-c1nc2cc(Cl)cnc2[nH]1 [MMV676358],90%,X* (Mean or standard deviation are negative but not significantly different from the control to be a growth promoter),
CCC(Sc1nc2ccccc2o1)C(=O)Nc1nnc(C)s1 (stereo not shown) [MMV611037],46%,X* (Mean or standard deviation are negative but not significantly different from the control to be a growth promoter),
COc1cc(C2=NCCN2)cc2cc(-c3ccc(C4=NCCN4)cc3)oc12 [MMV688362],54%,67%,
C[C@H](C(N)=O)N1CCCC[C@H]1c1ccc(OCc2cccc(F)c2)cc1 [MMV676269],69%,7%,
O=C(Nc1cccc(-c2ccc(NCCCN3CCCC3)nc2)c1)c1ccccc1 [MMV023953],82%,X* (Mean or standard deviation are negative but not significantly different from the control to be a growth promoter),
CC(Oc1ccccc1)C(=O)Nc1nc(-c2ccccn2)cs1 (stereo not shown) [MMV676411],16%,86%,
Clc1ccc(Cl)c(CO[C@H]2CCCC[C@@H]2n2ccnc2)c1 [MMV676048],37%,49%,
CCCCCCCCCCCCCCCCOP(=O)([O-])OCC[N+](C)(C)C [MMV688990],X* (Mean or standard deviation are negative but not significantly different from the control to be a growth promoter),X* (Mean or standard deviation are negative but not significantly different from the control to be a growth promoter),
COc1cccc(-n2nnnc2S(C)(=O)=O)c1 [MMV272144],X* (Mean or standard deviation are negative but not significantly different from the control to be a growth promoter),X* (Mean or standard deviation are negative but not significantly different from the control to be a growth promoter),
c1ccc2c(c1)CN(CC1CC1)CC1(CCN(Cc3c[nH]c4cnccc34)CC1)O2 [MMV023183],72%,X* (Mean or standard deviation are negative but not significantly different from the control to be a growth promoter),
CN(C)CCNC(=O)N1CCCN(c2ncnc3cc(-c4ccccc4)sc23)CC1 [MMV024195],31%,15%,
COc1ccccc1C(C)NCC(=O)Nc1cc(C(F)(F)F)ccc1Cl (stereo not shown) [MMV020321],X* (Mean or standard deviation are negative but not significantly different from the control to be a growth promoter),83%,
NC(=O)c1cc(-c2ccsc2)ccc1OCCOc1ccccc1 [MMV687138],X* (Mean or standard deviation are negative but not significantly different from the control to be a growth promoter),X* (Mean or standard deviation are negative but not significantly different from the control to be a growth promoter),
Cc1cc(C)c2cc(C(=O)NC3CCCCCCC3)[nH]c2c1 [MMV687146],15%,33%,
CS(=O)(=O)c1cccc(-c2cnc3[nH]cc(-c4ccc(CCC(=O)O)cc4)c3c2)c1 [MMV026020],19%,X* (Mean or standard deviation are negative but not significantly different from the control to be a growth promoter),

Compound,Giardia (16 uM) Mean % inhibition [1],Crypto (10 uM) Mean % inhibition [2],"G. lamblia EC50 ([1]; luciferase expressing G. lamblia trophozoites, 24 hours, D-luciferin bioluminescence read-out)"
Cc1c[nH]c(CCNC(=O)c2cc(-c3ccc(Cl)cc3)cs2)n1 [MMV676350],17%,X* (Mean or standard deviation are negative but not significantly different from the control to be a growth promoter),
C[C@H](C(N)=O)N1CCCC[C@@H]1c1ccc(OCc2cccc(F)c2)cc1 [MMV676270],20%,6.67%,
O=C(NCCc1ccn(-c2ccccc2)n1)C1CCCCC1 [MMV688795],29%,X* (Mean or standard deviation are negative but not significantly different from the control to be a growth promoter),
CO/N=C(/C(=O)OC)c1ccccc1CO/N=C(/C)c1cccc(C(F)(F)F)c1 [MMV688754],26%,X* (Mean or standard deviation are negative but not significantly different from the control to be a growth promoter),
Cc1cc(C(=O)Nc2ccc(-c3ccccc3)cc2)no1 [MMV020152],43%,X* (Mean or standard deviation are negative but not significantly different from the control to be a growth promoter),
O=C(C1CCN(c2nnc(-n3cccc3)s2)CC1)N1CCC(Cc2ccccc2)CC1 [MMV676478],9%,X* (Mean or standard deviation are negative but not significantly different from the control to be a growth promoter),
CCc1nc2ccc(Cl)cn2c1C(=O)NCc1ccc(N2CCC(c3ccc(OC(F)(F)F)cc3)CC2)cc1 [MMV687696],26%,21%,
Cc1cc(C)n2nc(C(=O)Nc3cc(C(F)(F)F)ccc3N3CCOCC3)nc2n1 [MMV019087],X* (Mean or standard deviation are negative but not significantly different from the control to be a growth promoter),35%,
CC(C)(C)OC(=O)N1CCC(Cn2nc(-c3cnc4ccccc4c3)c3c(N)ncnc32)CC1 [MMV688364],56%,X* (Mean or standard deviation are negative but not significantly different from the control to be a growth promoter),
Cc1cc(Cl)ccc1NC(=O)CCc1ccc(S(=O)(=O)NCC(C)C)cc1 [MMV161996],X* (Mean or standard deviation are negative but not significantly different from the control to be a growth promoter),41%,
COc1ccc2nc(C)cc(OCC(=O)Nc3ccccc3OC)c2c1 [MMV687188],28%,38%,
Cc1ccc(S(=O)(=O)n2cc(-c3ccnc(N)c3)c3cc(Br)cnc32)cc1 [MMV024114],78%,86%,not potent
CCCc1ccc(S(=O)(=O)Nc2ccc(CN3CCN(CC4CC4)CC3)cc2)cc1 [MMV688125],59%,50%,
CC1(O)CC(c2nc(-c3ccc4ccc(-c5ccccc5)nc4c3)c3c(N)nccn23)C1 (stereo not shown) [MMV676605],15%,X* (Mean or standard deviation are negative but not significantly different from the control to be a growth promoter),
Cc1ccccc1CN1CCC(O)(c2ccc(Cl)c(C(F)(F)F)c2)CC1 [MMV688846],35%,X* (Mean or standard deviation are negative but not significantly different from the control to be a growth promoter),
N#Cc1nc(-c2ccccc2F)oc1NCCc1ccccc1 [MMV676384],21%,40%,
Cc1nc(-c2ccccn2)nc(N(C)CCc2ccccc2)c1Cl [MMV658988],X* (Mean or standard deviation are negative but not significantly different from the control to be a growth promoter),33%,
CC1=Nc2ccc(Cl)cc2C(O)(c2ccc(C)cc2)N1CCN1CCCCC1 (stereo not shown) [MMV688279],65%,43%,
COc1ccc(S(=O)(=O)Nc2ccc(CN3CCN(C(=O)c4cccc(C#N)c4)CC3)cc2)cc1 [MMV689029],54%,54%,
FC(F)(F)c1nnc2ccc(Cl)nn12 [MMV069458],X* (Mean or standard deviation are negative but not significantly different from the control to be a growth promoter),65%,
COC(=O)C1=C(C)NC(C)=C(C(=O)OC(C)C)[C@H]1c1cccc2nonc12 [MMV001493],25%,53%,
